PubChem BioAssay (NCI)
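Cultured in 96-well plates, cells were exposed to test compound for 48 hours across five concentrations. The concentration for full growth arrest is given as TGI.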

What was measured:
Assay in all cases: NCI-60 cell line screen, 48 h
BT-549 breast = tested on: BT-549 breast
RXF 393 renal = tested on: RXF 393 renal
HS 578T breast = tested on: HS 578T breast
NCI-H23 lung = tested on: NCI-H23 lung
MCF7 breast = tested on: MCF7 breast
HL-60(TB) leukemia = tested on: HL-60(TB) leukemia
M14 melanoma = tested on: M14 melanoma
ACHN renal = tested on: ACHN renal
SK-OV-3 ovarian = tested on: SK-OV-3 ovarian
SN12C renal = tested on: SN12C renal
SF-295 CNS = tested on: SF-295 CNS
CAKI-1 renal = tested on: CAKI-1 renal
UACC-62 melanoma = tested on: UACC-62 melanoma
HOP-62 NSCLC = tested on: HOP-62 NSCLC
786-0 renal = tested on: 786-0 renal
SF-268 CNS = tested on: SF-268 CNS
EKVX NSCLC = tested on: EKVX NSCLC
HCC-2998 colon = tested on: HCC-2998 colon
NCI-H460 lung = tested on: NCI-H460 lung
COLO 205 colon = tested on: COLO 205 colon
SW-620 colon = tested on: SW-620 colon
SNB-19 CNS = tested on: SNB-19 CNS
OVCAR-5 ovarian = tested on: OVCAR-5 ovarian
SF-539 CNS = tested on: SF-539 CNS
SK-MEL-2 melanoma = tested on: SK-MEL-2 melanoma
HOP-92 NSCLC = tested on: HOP-92 NSCLC
MOLT-4 leukemia = tested on: MOLT-4 leukemia
HCT-116 colon = tested on: HCT-116 colon
A498 renal = tested on: A498 renal
NCI/ADR-RES ovarian = tested on: NCI/ADR-RES ovarian
OVCAR-3 ovarian = tested on: OVCAR-3 ovarian
NCI-H226 lung = tested on: NCI-H226 lung
NCI-H522 lung = tested on: NCI-H522 lung
T-47D breast = tested on: T-47D breast
PC-3 prostate = tested on: PC-3 prostate
HT29 colon = tested on: HT29 colon
K-562 leukemia = tested on: K-562 leukemia
A549 NSCLC = tested on: A549 NSCLC
MDA-N = tested on: MDA-N
HCT-15 colon = tested on: HCT-15 colon
UO-31 renal = tested on: UO-31 renal
KM12 colon = tested on: KM12 colon
UACC-257 melanoma = tested on: UACC-257 melanoma
SK-MEL-28 melanoma = tested on: SK-MEL-28 melanoma
OVCAR-8 ovarian = tested on: OVCAR-8 ovarian
DU-145 prostate = tested on: DU-145 prostate
IGROV1 ovarian = tested on: IGROV1 ovarian
MDA-MB-435 = tested on: MDA-MB-435
SNB-75 CNS = tested on: SNB-75 CNS
CCRF-CEM leukemia = tested on: CCRF-CEM leukemia
MALME-3M melanoma = tested on: MALME-3M melanoma
SK-MEL-5 melanoma = tested on: SK-MEL-5 melanoma
LOX IMVI melanoma = tested on: LOX IMVI melanoma
MDA-MB-231 breast = tested on: MDA-MB-231 breast
OVCAR-4 ovarian = tested on: OVCAR-4 ovarian
TK-10 renal = tested on: TK-10 renal
SR leukemia = tested on: SR leukemia
RPMI-8226 leukemia = tested on: RPMI-8226 leukemia
U251 CNS = tested on: U251 CNS

Compound: COc1cc(/C=N/NC(=O)c2c(Cl)c(Cl)c(Cl)c(Cl)c2-c2nc3ccccc3[nH]2)ccc1O
- TGI (BT-549 breast): 67.2 µM
- TGI (RXF 393 renal): 46.4 µM
- TGI (HS 578T breast): > 100 µM
- TGI (NCI-H23 lung): 55.3 µM
- TGI (MCF7 breast): 44.7 µM
- TGI (HL-60(TB) leukemia): 53.2 µM
- TGI (M14 melanoma): 90.9 µM
- TGI (ACHN renal): 62.5 µM
- TGI (SK-OV-3 ovarian): > 100 µM
- TGI (SN12C renal): > 100 µM
- TGI (SF-295 CNS): > 100 µM
- TGI (CAKI-1 renal): 49.8 µM
- TGI (UACC-62 melanoma): 32.4 µM
- TGI (HOP-62 NSCLC): 75.8 µM
- TGI (786-0 renal): > 100 µM
- TGI (SF-268 CNS): > 100 µM
- TGI (EKVX NSCLC): 82.6 µM
- TGI (HCC-2998 colon): 33.5 µM
- TGI (NCI-H460 lung): 57 µM
- TGI (COLO 205 colon): 73 µM
- TGI (SW-620 colon): > 100 µM
- TGI (SNB-19 CNS): > 100 µM
- TGI (OVCAR-5 ovarian): 86.7 µM
- TGI (SF-539 CNS): > 100 µM
- TGI (SK-MEL-2 melanoma): 41.1 µM
- TGI (HOP-92 NSCLC): 33.4 µM
- TGI (MOLT-4 leukemia): > 100 µM
- TGI (HCT-116 colon): 43.6 µM
- TGI (A498 renal): 61.4 µM
- TGI (NCI/ADR-RES ovarian): > 100 µM
- TGI (OVCAR-3 ovarian): > 100 µM
- TGI (NCI-H226 lung): 87.6 µM
- TGI (NCI-H522 lung): > 100 µM
- TGI (T-47D breast): 15.9 µM
- TGI (PC-3 prostate): > 100 µM
- TGI (HT29 colon): 62.9 µM
- TGI (K-562 leukemia): > 100 µM
- TGI (A549 NSCLC): > 100 µM
- TGI (MDA-N): 75.7 µM
- TGI (HCT-15 colon): 79.2 µM
- TGI (UO-31 renal): > 100 µM
- TGI (KM12 colon): 74.9 µM
- TGI (UACC-257 melanoma): 87.6 µM
- TGI (SK-MEL-28 melanoma): > 100 µM
- TGI (OVCAR-8 ovarian): > 100 µM
- TGI (DU-145 prostate): 56.5 µM
- TGI (IGROV1 ovarian): > 100 µM
- TGI (MDA-MB-435): 91.7 µM
- TGI (SNB-75 CNS): 60.5 µM
- TGI (CCRF-CEM leukemia): > 100 µM
- TGI (MALME-3M melanoma): 52.9 µM
- TGI (SK-MEL-5 melanoma): 34.2 µM
- TGI (LOX IMVI melanoma): 61.1 µM

Compound: Oc1ccc(-c2nc3ccc(F)cc3s2)cc1
- TGI (BT-549 breast): 37.4 µM
- TGI (RXF 393 renal): 68.2 µM
- TGI (MDA-MB-231 breast): 49 µM
- TGI (OVCAR-4 ovarian): 58.1 µM
- TGI (NCI-H23 lung): 48.3 µM
- TGI (TK-10 renal): 34.1 µM
- TGI (MCF7 breast): 59.1 µM
- TGI (HL-60(TB) leukemia): 51.8 µM
- TGI (M14 melanoma): 37.3 µM
- TGI (ACHN renal): 38.6 µM
- TGI (SK-OV-3 ovarian): 42.8 µM
- TGI (SN12C renal): 40.9 µM
- TGI (SF-295 CNS): 33.9 µM
- TGI (CAKI-1 renal): 37 µM
- TGI (UACC-62 melanoma): 34.8 µM
- TGI (786-0 renal): 36 µM
- TGI (SF-268 CNS): 58.9 µM
- TGI (EKVX NSCLC): 25.4 µM
- TGI (NCI-H460 lung): 59 µM
- TGI (COLO 205 colon): 29.9 µM
- TGI (SR leukemia): 53.4 µM
- TGI (SW-620 colon): > 100 µM
- TGI (SNB-19 CNS): 51.2 µM
- TGI (OVCAR-5 ovarian): 44.7 µM
- TGI (RPMI-8226 leukemia): 63.9 µM
- TGI (SF-539 CNS): 34 µM
- TGI (SK-MEL-2 melanoma): 34.9 µM
- TGI (MOLT-4 leukemia): > 100 µM
- TGI (HCT-116 colon): 32.9 µM
- TGI (NCI/ADR-RES ovarian): 52.8 µM
- TGI (OVCAR-3 ovarian): 90.9 µM
- TGI (NCI-H226 lung): 44.5 µM
- TGI (NCI-H522 lung): 26.9 µM
- TGI (T-47D breast): 36 µM
- TGI (PC-3 prostate): 44.5 µM
- TGI (HT29 colon): 31.3 µM
- TGI (K-562 leukemia): > 100 µM
- TGI (A549 NSCLC): 43.1 µM
- TGI (MDA-N): 70.6 µM
- TGI (HCT-15 colon): 35 µM
- TGI (U251 CNS): 39.9 µM
- TGI (UO-31 renal): 30.1 µM
- TGI (KM12 colon): 33.8 µM
- TGI (UACC-257 melanoma): 37.2 µM
- TGI (OVCAR-8 ovarian): 39.9 µM
- TGI (DU-145 prostate): 30.3 µM
- TGI (IGROV1 ovarian): 34.6 µM
- TGI (MDA-MB-435): 41.5 µM
- TGI (MALME-3M melanoma): 38.5 µM
- TGI (SK-MEL-5 melanoma): 38 µM
- TGI (LOX IMVI melanoma): 39.7 µM
